Marks after values point to notes of the source that are not given here.
Experiments:
Format in all cases: in vivo, human
participants with NT1 [1] = assay: Nocturnal polysomnography (PSG) sleep architecture, Phase 2 NT1 trial
Source text: Polysomnography (PSG) was collected at baseline and after 27 and 54 days of treatment. Sleep was manually scored following AASM guidelines; sleep metrics were extracted then computed by whole night and by quarter-night. Continuous accelerometry (Empatica EmbracePlus watch) allowed assessment of sleep in a naturalistic manner at home. Daily sleep diaries were used to capture subjective reports. Mixed effects models were fit with treatment, quarter-night, visit, and their interactions as fixed effects and random intercepts per subject. A reference PSG dataset (Vilela M, et al. J Sleep Res 2024; e14216) from CHU Montpellier (49 clinical controls and 114 patients with NT1, all drug-free) was analyzed to establish DNS characteristics of NT1.

participants with NT1 [2] = assay: SF-36 and EQ-5D-5L health-related quality of life, Phase 2 NT1 trial
Source text: Health conditions such as mobility, self-care, usual activities, pain/discomfort, and/or anxiety/depression as related to NT1 can be assessed by the EQ-5D-5L assessment. The EQ-5D-5L is a standardized 5-item measure of health status developed by the EuroQol Group to provide a simple, generic measure of health for clinical and economic appraisal that has been used in a wide range of health conditions and treatments (Herdman et al. 2011; Janssen et al. 2013). The EQ-5D-5L consists of a descriptive system and the EuroQol visual analog scale (VAS). The descriptive system comprises 5 dimensions: mobility, self-care, usual activities, pain/discomfort, and anxiety/depression. The EuroQol VAS records the participant's self-rated health on a vertical VAS. This can be used as a quantitative measure of health outcome that reflects the participant's own judgment. The scores on these 5 dimensions can be presented as a health profile or can be converted to a single summary index number (utility) reflecting preferability compared with other health profiles.
Patient health self-assessments can be measured by the SF-36. The SF-36 is a 36-item, participant-reported survey of participant health. […] Similar to each scale, the component scores are also positively scored so that higher scores represent better health-related quality-of-life. […]

participants with NT1 [3] = assay: Clinical and Patient Global Impression (CGI, PGI), Phase 2 NT1 trial; conditions: Week 8, patients treated with Compound A
Source text: The Patient Global Impression Scale-Severity Scale (PGI-S) provides a participant-perceived assessment of overall symptoms (4-point Likert-type scale, “normal to “severe”) administered at baseline while the Patient Global Impression-Improvement Scale (PGI-I) provides a participant-perceived summary of global treatment effect on daytime sleepiness and cataplexy (7-point Likert-type scale, “very much improved” to “very much worse”) administered at different points during treatment.
The Clinical Global Impression Scale provides an overall clinician-determined summary measure of a participant's treatment experience that takes into account all available information, including knowledge of the participant's history, psychosocial circumstances, symptoms, behavior, and the impact of the symptoms on the participant's ability to function. The assessment consists of various subscales. One is the Clinical Global Impression-Severity (CGI-S). The CGI-S assesses the severity of overall narcolepsy symptoms. It uses a 7-point Likert-type scale ranging from “normal, not at all ill” to “among the most extremely ill patients.”
Another subscale is the Clinical Global Impression-Improvement (CGI-I), which assesses improvement of symptoms. The CGI-I asks clinicians to rate the extent to which their patients' current overall narcolepsy symptoms are improved (compared with the start of the study). […]

## CCS(=O)(=O)N[C@@H]1[C@H](Cc2cccc(-c3cc(F)cc(F)c3)c2F)N(C(=O)C(C)(C)O)CC1(F)F [Compound A, N-{(2S,3R)-4,4-difluoro-1-(2-hydroxy-2-methylpropanoyl)-2-[(2,3′,5′-trifluoro[1,1′-biphenyl]-3-yl)methyl]pyrrolidin-3-yl}ethanesulfonamide]
Participants with NT1 [1]; 7 mg QD
  PSG % of time in N1, change from baseline to week 8: 2.90* %
  PSG % of time in N2, change from baseline to week 8: −6.10* %
  PSG % of time in N3, change from baseline to week 8: −0.12%
  PSG % of time in REM, change from baseline to week 8: −4.48* %
  PSG % of time in WASO, change from baseline to week 8: 7.81* %
  PSG No. of awakenings, change from baseline to week 8: 6.3*
  PSG SOL, change from baseline to week 8: -6.8 min
  PSG TST, change from baseline to week 8: −42.7* min
  PSG WASO, change from baseline to week 8: 38.1* min
Participants with NT1 [1]; 0.5/0.5 mg
  PSG % of time in N1, change from baseline to week 8: 1.13%
  PSG % of time in N2, change from baseline to week 8: −1.75%
  PSG % of time in N3, change from baseline to week 8: −0.27%
  PSG % of time in REM, change from baseline to week 8: 1.28%
  PSG % of time in WASO, change from baseline to week 8: −0.39%
  PSG No. of awakenings, change from baseline to week 8: −2.3
  PSG SOL, change from baseline to week 8: 0.4 min
  PSG TST, change from baseline to week 8: -5.4 min
  PSG WASO, change from baseline to week 8: -3.6 min
Participants with NT1 [1]; 2/2 mg
  PSG % of time in N1, change from baseline to week 8: 1.76%
  PSG % of time in N2, change from baseline to week 8: 0.65%
  PSG % of time in N3, change from baseline to week 8: 0.45%
  PSG % of time in REM, change from baseline to week 8: −2.43%
  PSG % of time in WASO, change from baseline to week 8: −0.43%
  PSG No. of awakenings, change from baseline to week 8: 2.5
  PSG SOL, change from baseline to week 8: -1.9 min
  PSG TST, change from baseline to week 8: 8.4 min
  PSG WASO, change from baseline to week 8: -2.4 min
Participants with NT1 [1]; 2/5 mg
  PSG % of time in N1, change from baseline to week 8: 3.55* %
  PSG % of time in N2, change from baseline to week 8: −1.69%
  PSG % of time in N3, change from baseline to week 8: −0.44%
  PSG % of time in REM, change from baseline to week 8: −4.08* %
  PSG % of time in WASO, change from baseline to week 8: 2.57%
  PSG No. of awakenings, change from baseline to week 8: 3.2
  PSG SOL, change from baseline to week 8: -3.4 min
  PSG TST, change from baseline to week 8: -19.9 min
  PSG WASO, change from baseline to week 8: 11.0 min
Participants with NT1 [1]; week 8 (FIG. 6A)
  REM sleep architecture per quarter night (in-clinic PSG): shifted REM sleep from early to later in the night without reducing the total REM
Participants with NT1 [1]; week 8, except in the 0.5 mg/0.5 mg cohort (FIG. 6B)
  Rate of transitions between REM and wake/N1: reduced the rate of sleep/wake transitions early in the night
Participants with NT1 [2]; all Compound A doses (FIG. 22)
  SF-36 summary scores, change from baseline versus placebo: Statistically significant improvements
Participants with NT1 [2]; all Compound A doses (FIG. 23)
  EQ-5D (index score and VAS), change from baseline versus placebo: Statistically significant improvements
Participants with NT1 [3]
  Patients much/very much improved on the PGI and CGI: > 70%

Reference: patent US20250375417A1, “OREXIN RECEPTOR 2 (OX2R) AGONIST FOR USE IN NARCOLEPSY TYPE 1 (NT1)” (TAKEDA PHARMACEUTICAL COMPANY LIMITED, priority 2024, published 2025)
